From patent US6194465A, “Benzamide therapeutics for the treatment of inflammatory bowel disease” (priority 1999, dated 2001)
“Also recorded” adds a separate entry of the source.

Columns and labels:
[1] = system: adjuvant induced arthritis; test: Rat adjuvant induced arthritis model of chronic inflammation; assay type: in vivo; settings: Compound A 100 mg/kg po or dexamethasone 0.1 mg/kg, daily 7 days, vs adjuvant
Description: Confirmation of the anti-inflammatory activity of Compound A was sought in another related biological test-the rat adjuvant induced arthritis model of chronic inflammation. This model was selected because almost all of the anti-IBD agents also show efficacy in standard arthritis models. In this model Compound A was tested at 100 mg/kg, po in a 1 % methyl cellulose suspension. On day 0 all animals received an injection of either Mycobacterium butyricum (100μL, 20 mg/mL in mineral oil) or mineral oil in the base of the tail. 14 days after this injection, rat paws were measured and all the rats were randomized into 3 treatment groups of 8. A control adjuvant group (group without further treatment), a group to be treated with dexamethasone (steroid reference) and a group to treated with Compound A. Rats received Compound A 100 mg/kg, po, or dexamethasone 0.1 mg/kg, op, daily until day 21 (7 days dosing). On day 21 rats were sacrificed. Paw measurements were taken after 5 and 7 days treatment.

[2] = system: inflammatory bowel disease; settings: cited from earlier work; for effectiveness in small bowel inflammation / side-effects (in words): IBD patients
[3] = system: TNBS-induced colonic inflammation; test: TNBS model, Compound N and comparison with 5-ASA; assay type: in vivo, rats
Description: Male Sprague-Dawley rats (200-250 g) were housed in standard cages (2 per cage) and fed rat chow and tap water ad libitum. After an overnight fast, rats were brought into the laboratory and randomized into treatment groups. Colitis was induced by intrarectal administration of 0.5 ml of TNBS solution (50 mg/kg in 50% ethanol) using a 1 ml syringe attached to a 5 cm polyethylene catheter. Control animals received saline (0.9%) or a 1 % methyl cellulose suspension at identical time points.
Three days after TNBS administration, the rats were sacrificed and the colons excised and opened longitudinally.
Compound N was subjected to a series of TNBS activity tests as just described.
Groups of rats (11 rats/group) were administered Compound N (10 mg/kg po), 5-ASA (10 mg/kg po), 5-ASA (300 mg/kg po), or the methylcellulose vehicle 1 hour prior to the TNBS enema. After 3 days the rats were sacrificed and the colonic damage morphologically evaluated.
Groups of rats, were administered increasing doses of Compound N (0-100 mg/kg-po) 1 hour prior to TNBS enema. In these experiments the endpoint was macroscopic assessment.

[4] = system: TNBS induced model of colitis; settings: only if multiple high doses administered intra-rectally; cited from earlier work
[5] = PK parameter estimates, 30 mg/kg po (Table 1); assay type: in vivo, rats; settings: Compound N relative to Compound A, rats, 30 mg/kg po; 30 mg/kg
Description: The bioavailability of compound N is depicted in FIG. 10 as well. |(NRTs Dosed 30 mg/kg po in 1% Methyl Cellulose, n = 3 rats/NRT)

lethality induced by LPS = settings: various rodent models of septic shock; cited from earlier work
[6] = system: senescence accelerated mice; settings: cited from earlier work
[7] = system: inducible nitric oxide synthetase (iNOS); settings: cited from earlier work
[8] = following ischemia; cited from earlier work
[9] = 0-100 mg/kg po, 1 hour prior to TNBS

C[C@@H]1C[C@H]2[C@@H]3CCC4=CC(=O)C=C[C@]4(C)[C@@]3(F)[C@@H](O)C[C@]2(C)[C@@]1(O)C(=O)CO [dexamethasone, reference compound]
inhibition of the inflammatory response [1]: significant inhibition of the inflammatory response (p<0.005)

O=C(O)c1cc(/N=N/c2ccc(O)c(C(=O)O)c2)ccc1O [olsalazine]
effectiveness in small bowel inflammation [2]: Neither sulfasalazine nor olsalazine are effective | side-effects (in words) [2]: side effects are reduced

Nc1ccc(O)c(C(=O)O)c1 [Compound 5-ASA]
effect on TNBS-induced colonic inflammation, 5-ASA 10 mg/kg ([3]; 10 mg/kg po, 1 hour before TNBS): no effect | effect on TNBS-induced colonic inflammation, 5-ASA 300 mg/kg ([3]; 300 mg/kg po, 1 hour before TNBS): no effect | time to full efficacy ([2]; 5-ASA therapy): 6-8 weeks | response in Crohn's disease [2]: poor | response in early ulcerative colitis [2]: fair to mild | response in severe ulcerative colitis [2]: poor | protection, 5-ASA intra-rectal [4]: 50%

CC(C)(C)NC(=O)c1ccc(N)cc1 [Compound N, N-tert-butyl-4-aminobenzamide]
clearance / systemic exposure / variability (in words) [5]: lower clearance; also recorded: overall greater systemic exposure; also recorded: relatively low variability in plasma concentration | colonic morphological score, dose-response (in words) [3, 9]: dose=dependent reduction in the colonic morphological score | significance of protection [3, 9]: only significant (p <0.05) at the 10, 30 and 100 mg/kg doses | efficacy, 10 mg/kg po, Compound N ([3]; 10 mg/kg po single dose, 1 hour before TNBS): excellent efficacy | activity relative to Compound A ([3]; TNBS activity tests): better activity than that of Compound A | protection ([3]; TNBS activity tests): 75%

CC(C)(C)[N+]([O-])=Cc1ccccc1 [PBN, α-phenyl-t-butyl nitrone]
protection against lethality induced by LPS (lethality induced by LPS): consistent and well documented protection | increase of life span [6]: one third | block of iNOS [7]: block inducible nitric oxide synthetase | trapping of reactive oxygen species and/or secondary free radicals [8]: trap reactive oxygen species and/or secondary free radicals

Nc1ccc(S(=O)(=O)Nc2ccccn2)cc1 [sulfapyridine]
side-effects (in words) [2]: significant side-effects such as reversible sperm abnormalities, dyspepsia or allergic reactions to the sulpha component | patients who cannot tolerate ([2]; sulfapyridine component of sulfasalazine): at least 20 % of patients

O=C(O)c1cc(/N=N/c2ccc(S(=O)(=O)Nc3ccccn3)cc2)ccc1O [sulfasalazine]
response in Crohn's disease [2]: poor | effectiveness in small bowel inflammation [2]: Neither sulfasalazine nor olsalazine are effective | response in early ulcerative colitis [2]: fair to mild | response in severe ulcerative colitis [2]: poor
